Results published in patent US5254731A, “Substituted 3,4-dihydronaphthalenes, pharmaceutical compositions containing them, and preparation processes” (Gruenenthal GmbH, priority 1991, dated 1993).

How the values were obtained:
[1] = tested on: endotoxin/galactosamine-induced hepatitis; assay: endotoxin/galactosamine-induced hepatitis in mice (septic shock model); assay type: in vivo, mouse; conditions: for shock mortality: endotoxin/galactosamine-induced hepatitis model; for Inhibition of increase of the enzymatic activity of GPT / Inhibition of increase of the enzymatic activity of SDH: i.p., 10 mg/kg for each of five administrations, serum, 8 hours after endotoxin
Method: To evaluate the effects of compounds according to the invention on septic shock, endotoxin/galactosamine-induced hepatitis in mice was used as test model. […] Intraperitoneal administration of compounds of formula I 30 minutes before, simultaneously with, and 2, 4 and 6 hours after administration of the endotoxin inhibits the hepatitis-induced increase of the activities of these enzymes in the serum. On administration of compounds of formula I in doses of 10 mg/kg for each of the five administrations, the following percentage inhibitions of the increase of the enzymatic activities of GPT and SDH were achieved (the increase of enzymatic activities in control animals who had been treated five times with a solution containing 1% by weight of sodium carboxymethylcellulose was set at 100%): […]

[2] = tested on: bronchoconstriction elicited by ovalbumin; assay: anti-asthmatic effect: ovalbumin-elicited bronchoconstriction in anesthetized, passively sensitized guinea pigs; assay type: in vivo, guinea pig; conditions: Cavia porcellus, 1 h; oral, 60 minutes before ovalbumin 0.2 mg/kg i.v.; read-out: ED40 (40% average inhibition of the bronchoconstriction elicited by ovalbumin)
Method: The anti-asthmatic effect of compounds according to the invention was tested in anesthetized and ventilated guinea pigs. To induce an asthmatic reaction, the animals were passively sensitized by a single intraperitoneal injection of anti-ovalbumin serum. After 48 hours the asthmatic reaction was elicited by intravenous challenge with 0.2 mg/kg of ovalbumin. The immediately resulting bronchoconstriction was measured as an increase in intratracheal pressure. Effects caused by histamine, serotonin and sympathic counterreaction were eliminated by intravenous pretreatment with 2.15 mg/kg of mepyramine, 46.4 mg/kg of propranolol, 4.64 mg/kg of atropine and 1 mg/kg of methysergide, all administered 5 minutes before challenge. Substituted 3,4-dihydronaphthalenes were orally administered 60 minutes before the administration of ovalbumin.

[3] = comparative compound, aforementioned test model
[4] = comparative compounds of formula A, aforementioned test model

| Structure (SMILES) | ED40 [2] [mg/kg] | Inhibition of increase of the enzymatic activity of GPT [1] [%] | Inhibition of increase of the enzymatic activity of SDH [1] [%] | also measured |
| --- | --- | --- | --- | --- |
| NC(=O)N(O)CC1=Cc2ccc(OCc3ccccc3)cc2CC1 [Example A1, reference compound] |  |  |  | inhibition of GPT (in words) [1, 3]: did not cause either an inhibition of GPT; inhibition of SDH (in words) [1, 3]: did not cause either an inhibition of GPT and SDH; shock mortality [1]: did not cause either an inhibition of GPT and SDH or a decrease in the shock mortality |
| COc1ccc2c(c1)CCC(CN(O)C(N)=O)=C2 [Example 3, N-hydroxy-N-[(6-methoxy-3,4-dihydronaphth-2-yl)methyl]urea] | 33.5 | 78 | 57 |  |
| COc1ccc2c(c1)CCC(CN(O)C(C)=O)=C2 [Example 1, N-[(6-methoxy-3,4-dihydronaphth-2-yl)methyl]acetohydroxamic acid] |  | 54 | 41 |  |
| CC(=O)N(O)CC1=Cc2ccc(OC3CCCC3)cc2CC1 [Example 6a, N-[(6-cyclopentyloxy 3,4-dihydronaphth 2 yl)methyl]acetohydroxamic acid] | 275 |  |  |  |
| CC(=O)N(O)CC1=Cc2ccc(OCc3ccccc3)cc2CC1 [Example A2, reference compound] |  |  |  | inhibition of GPT [1, 4]: 16%; inhibition of SDH [1, 4]: 32%; shock mortality [1]: no detectable influence on shock mortality |
| CC(C)Oc1ccc2c(c1)CCC(CN(O)C(N)=O)=C2 [Example 6e, N-hydroxy-N-[(6-isopropoxy-3,4-dihydronaphth-2-yl)methyl]urea] | 368 |  |  |  |
| COc1ccc2c(c1)CCC(C(C)N(O)C(C)=O)=C2 (stereo not drawn) [Example 2, N-[1-(6-methoxy-3,4-dihydronaphth-2-yl)ethyl]acetohydroxamic acid] |  | 56 | 69 |  |
